Source: PubChem BioAssay (NCI)
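How tested: cells in 96-well plates exposed to compound for 48 hours at five concentrations. GI50: concentration for 50% inhibition of growth. The concentration for full growth arrest is given as TGI.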

What was measured:
Test in all cases: growth of human tumour cells (NCI), 48 h
NCI-H226 lung = system: NCI-H226 lung
OVCAR-4 ovarian = system: OVCAR-4 ovarian
PC-3 prostate = system: PC-3 prostate
MOLT-4 leukemia = system: MOLT-4 leukemia
SN12C renal = system: SN12C renal
HCC-2998 colon = system: HCC-2998 colon
SK-MEL-28 melanoma = system: SK-MEL-28 melanoma
U251 CNS = system: U251 CNS
ACHN renal = system: ACHN renal
786-0 renal = system: 786-0 renal

Row | Compound | GI50 (NCI-H226 lung) [µM] | TGI (NCI-H226 lung) [µM] | GI50 (OVCAR-4 ovarian) [µM] | TGI (OVCAR-4 ovarian) [µM] | GI50 (PC-3 prostate) [µM] | TGI (PC-3 prostate) [µM] | GI50 (MOLT-4 leukemia) [µM] | TGI (MOLT-4 leukemia) [µM] | GI50 (SN12C renal) [µM] | TGI (SN12C renal) [µM] | GI50 (HCC-2998 colon) [µM] | TGI (HCC-2998 colon) [µM] | GI50 (SK-MEL-28 melanoma) [µM] | TGI (SK-MEL-28 melanoma) [µM] | GI50 (U251 CNS) [µM] | TGI (U251 CNS) [µM] | GI50 (ACHN renal) [µM] | TGI (ACHN renal) [µM] | GI50 (786-0 renal) [µM] | TGI (786-0 renal) [µM]
1 | COc1ccc(-c2ccc(/C=N/n3c(COc4ccc(Cl)cc4)n[nH]c3=S)o2)c([N+](=O)[O-])c1 | 13.5 | 57.8 | 2.87 | 18.2 | 12.2 | 35.9 | 16.5 | 75.4 | 19.9 | 53.4 | 16.5 | 31.2 | 17.3 | > 100 | 15.5 | 49.7 | 17.2 | 39.6 | 18.4 | 44.7
2 | CS(=O)(=O)Nc1cc(-c2ccc3ncnc(Nc4ccc5c(cnn5Cc5ccc(F)cc5)c4)c3c2)cnc1Cl | 2.18 | 11 | 3.09 | 44 | 1.8 | 8.68 | 0.801 | 3.89 | 1.66 | 19.3 | 1.41 | 3.17 | 0.803 | 7.17 | 1.41 | 11.1 | 2.99 | > 100 | 2.22 | 19.9
3 | CCOC(=O)N1CCN(S(=O)(=O)c2oc(-c3ccc(Cl)cc3)nc2C#N)CC1 | 64.3 | > 100 | 2.36 | 5.5 | 2.24 | 5.77 | 0.739 | 4.35 | 1.66 | 3.23 | 3.15 | 10.8 | 2.12 | 4.23 | 5.49 | 19.6 | 1.76 | 3.15 | 1.65 | 3.24
4 | C=C[C@]1(C)C=C2C(=O)[C@@]3(O)OC[C@@]4(CCCC(C)(C)C43O)C2(O)C(O)C1 (stereo not given in full) | 5.43 | 12.1 | 2.32 | 5.47 | 14.9 | 32.7 | 3.09 | 15.2 | 8.4 | 23.2 | 17.2 | 31.5 | 4.26 | 15.6 | 13.6 | 28.1 | 1.54 | 3.1 | 2.21 | 5.51
5 | Cc1cc(N2CCCC2)nc(N(CCCNc2ccnc3cc(Cl)ccc23)Cc2ccc3c(c2)OCO3)n1 | 5.2 | 33.8 | 1.86 | 8.22 | 1.47 | 12 | 1.3 | 4.64 | 1.76 | 11.3 | 1.79 | 3.79 | 1.3 | 2.74 | 1.57 | 5.2 | 1.67 | 5.93 | 1.11 | 2.8
6 | CCOC(=O)c1c(C)n(Cc2ccc(Cl)cc2Cl)c2c1cc1oc(=O)c(=O)n3c(Cc4ccccc4)nc2c13 | 10.7 | 25 | 4.45 | 16.4 | 2.06 | 5.01 | 2.12 | 4.55 | 2.22 | 4.56 | 2.25 | 5.04 | 11 | 24.9 | 2.45 | 6.5 | 3.06 | 11.8 | 5.18 | 19.2
7 | O=C(NN1C(=O)CSC1c1ccc(Cl)cc1)c1[nH]c2ccc(F)cc2c1-c1ccccc1 (stereo not given) | 3.51 | 9.43 | 6.3 | 24 | 2.72 | 8.89 | 2.4 | 8.17 | 2.87 | 7.84 | 2.31 | 5.63 | 3.23 | 10.1 | 3.14 | 8.38 | 3.28 | 12.2 | 1.89 | 3.6
8 | Cn1cc(-c2ccc3c(c2)CCN3C(=O)Cc2cccc(C(F)(F)F)c2)c2c(N)ncnc21 | 3.85 | 19.1 | 2.41 | > 100 | 4.86 | 28.7 | 3.55 | 18.6 | 2.48 | 19.6 | 13.1 | 28.4 | 4.72 | 21.4 | 2.69 | 17.7 | 0.871 | 13.2 | 2.26 | 17.7
9 | Cn1cc(-c2ccc(CNc3cc(-c4cnc5cc(OCCCN6CCCC6)ccn45)ncn3)cc2)cn1 | 2.03 | 4.81 | 1.88 | 3.93 | 3.63 | > 100 | 2.76 | > 100 | 1.82 | 3.61 | 2.21 | 5.71 | 1.65 | 3.17 | 1.43 | 2.77 | 1.78 | 3.22 | 1.49 | 2.91
10 | CCCCC[C@H]1C/C=C2/C(=O)C(Cl)=C[C@@H]2C/C=C\CCCC(=O)O[C@@H](CCCCC)C/C=C2/C(=O)C(Cl)=C[C@@H]2C/C=C\CCCC(=O)O1 | 0.38 | 0.86 | 0.461 | 1.79 | 0.368 | 1.08 | 0.234 | 1.71 | 0.482 | 2.72 | 0.349 | 0.651 | 0.407 | 1.01 | 0.291 | 0.652 | 0.623 | 2.15 | 0.28 | 0.622
